What was measured:
[1] = 10-day food admix tolerability in mice (body weight, food intake, plasma AST, ALT, CK); type: in vivo; conditions: 10 days
Experimental: (A) Schematic representation of the de novo sphingolipid synthesis pathway. (B) Chemical structures of myriocin (MYR) and ALT-007. (C) Heatmap analysis comparing the effects of treatments with the indicated concentrations of MYR and ALT-007 on lipid species in C2C12 cells. N = 3 per group. Data are shown as log2 fold change. (D) Body weight curves of mice treated with ALT-007 or vehicle (4 mg/kg/d for 10 days, in the food). (E) Mean food consumption measurement throughout the treatment. (F) Plasma levels of aspartate transaminase (AST), (G) alanine transaminase (ALT) and (H) creatine kinase (CK) after 10 days of treatment with ALT-007 at 4 mg/kg/day. (I) Ceramide levels measured in the gastrocnemius muscle after 10 days of treatment. N = 8 per group. Quantitative data are expressed as median with min to max values. *P < 0.05, **P < 0.01, ***P < 0.001. ANOVA test was used for multiple comparison, and the Mann–Whitney U test when comparing 2 groups. All tests were 2 sided. Abbreviation: SPT, serine palmitoyltransferase; CK, creatine kinase; MYR, Myriocin; ns, nonsignificant.
Plasma parameters were assessed using samples diluted two times (at a 1:1 ratio of plasma to diluent) with the DimensionXpand Plus system from Siemens Healthcare Diagnostics. The biochemical tests were conducted in accordance with the manufacturer’s instructions for each specific parameter. These parameters included transaminase AST (DF41A), transaminase ALT (DF143) and creatine kinase (11097640), all provided by Siemens Healthcare.

[2] = tested on: sphingolipids in gastrocnemius muscle and brain; assay: Sphingolipid and deoxysphingolipid analysis in gastrocnemius muscle and brain of aged mice (20 weeks); type: in vivo, C57BL/6JRj mice; conditions: 1 mg/kg in the food
Experimental: Figure 4 1-deoxy-SL species accumulate in muscle and brain tissues during aging and contribute to cellular protein aggregation. (A,B) Heat map representing the abundance of sphingolipids in (A) gastrocnemius muscle and (B) brain with and without treatment with ALT-007 in mice (ALT-007 at 1 mg/kg; DMSO at equivalent volume for 20 weeks). N = 8 per group. Data are shown as log2 fold change. Adjusted P values are indicated as follows: *adjusted P < 0.05; **adjusted P < 0.01; ***adjusted P < 0.001. (C,D) Representative images and quantification of protein aggregates upon 1-deoxy-SA (C) and P053 treatment (D) in human primary IBM cells; both were administered at 4 μM for 24 h. N = 8 per group. (E) Analysis of 1-Deoxy-Spa and 1-DeoxyCer 24:1 levels in myoblasts from healthy and IBM patients. N = 3 per group. (C–E) Quantitative data are expressed as median with IQR and compared using the Mann–Whitney U test. All tests were 2 sided. *P < 0.05, **P < 0.01, ***P < 0.001.
Sphingolipid and deoxysphingolipid measurements were performed by liquid chromatography–tandem mass spectrometry (LC–MS/MS) analysis as described in previous studies.[12],[13],[28]−[30] […]
ESI source conditions were used as follows: dry gas temperature, 230 °C; nebulizer, 35 psi and flow rate of 14 L min^–1; sheath gas temperature, 400 °C and flow rate of 12 L min^–1; nozzle voltage, 500 V; and capillary voltage, 4000 V. Dynamic multiple reaction monitoring was used as the acquisition mode with a total cycle time of 500 ms. […] Raw LC–MS/MS data were processed applying Agilent Quantitative Analysis software (version B.07.00, MassHunter Agilent Technologies).
Absolute quantification was based on calibration curves and stable isotope-labeled internal standards to determine the response factor for each metabolite, with linearity assessed using 12-point range standard curves. […] Sphingolipid concentrations were reported and protein concentrations in protein pellets (measured by BCA, Thermo Fisher Scientific) were determined after metabolite extraction. […]

[3] = design: method as in PMID 29669694; conditions: compared to Myriocin; cited from earlier work
[4] = 4 mg/kg/d in the food, vs DMSO control mice

COc1cc(C(=O)N2CC[C@H](NC(=O)c3ccccc3OC(F)(F)F)c3c2cnn3C(C)C)cnc1OC [ALT-007]
body weight [1, 4]: no differences
food intake [1, 4]: no differences
hepatic toxicity by plasma transaminase (AST, ALT) levels ([1]; 4 mg/kg/day): neither hepatic nor muscle toxicity was identified
muscle toxicity by plasma creatine kinase (CK) levels ([1]; 4 mg/kg/day): neither hepatic nor muscle toxicity was identified
1-deoxy-SLs in the brain [2]: attenuated the age-related increase in 1-deoxy-SLs
total ceramides in the gastrocnemius [2]: lower levels of total ceramides
very long chain 1-deoxy-SLs (1-deoxyCer 22, 1-deoxyCer 24:1, N-C24:1-deoxysphinganine) in the gastrocnemius muscle [2]: attenuated
permeability [3]: improved

From publication PMC11729425 (ACS Pharmacology & Translational Science, 2024)
